Measured values: PubChem BioAssay AID1963827 (Molecular Pharmacology Branch, DTP, NCI, 2024)

Test system: 994946-033-R-J1-PDC complex spheroid viability
Test: Anticancer human tumor 994946-033-R-J1-PDC patient-derived melanoma cell line growth inhibition [POLQ]
Conditions: for IC50: curve of first compound; for viability, T/C: stronger effect = lower value; active = viability on the fitted dose curve at most 10% of control; inactive = the rest
Outline: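 PDC + HUVEC + MSC complex spheroids; POLQ inhibitors ± partner drugs; top conc. at/near clinical Cmax, else 10 microM (SN-38 1 microM), half-log dilutions; 37 degrees C, 5% CO2.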

[1] = second compound 0.0316 µM, first compound 0.0316 µM
[2] = second compound 0.0316 µM, first compound 0.1 µM
[3] = second compound 0.0316 µM, first compound 0.316 µM
[4] = second compound 0.0316 µM, first compound 1 µM
[5] = second compound 0.0316 µM, first compound 3.16 µM
[6] = second compound 0.0316 µM, first compound 10 µM
[7] = second compound 0.1 µM, first compound 0.0316 µM
[8] = second compound 0.1 µM, first compound 0.1 µM
[9] = second compound 0.1 µM, first compound 0.316 µM
[10] = second compound 0.1 µM, first compound 1 µM
[11] = second compound 0.1 µM, first compound 3.16 µM
[12] = second compound 0.1 µM, first compound 10 µM
[13] = second compound 0.316 µM, first compound 0.0316 µM
[14] = second compound 0.316 µM, first compound 0.1 µM
[15] = second compound 0.316 µM, first compound 0.316 µM
[16] = second compound 0.316 µM, first compound 1 µM
[17] = second compound 0.316 µM, first compound 3.16 µM
[18] = second compound 0.316 µM, first compound 10 µM
[19] = second compound 1 µM, first compound 0.0316 µM
[20] = second compound 1 µM, first compound 0.1 µM
[21] = second compound 1 µM, first compound 0.316 µM
[22] = second compound 1 µM, first compound 1 µM
[23] = second compound 1 µM, first compound 3.16 µM
[24] = second compound 1 µM, first compound 10 µM
[25] = second compound 3.16 µM, first compound 0.0316 µM
[26] = second compound 3.16 µM, first compound 0.1 µM
[27] = second compound 3.16 µM, first compound 0.316 µM
[28] = second compound 3.16 µM, first compound 1 µM
[29] = second compound 3.16 µM, first compound 3.16 µM
[30] = second compound 3.16 µM, first compound 10 µM
[31] = second compound 10 µM, first compound 0.0316 µM
[32] = second compound 10 µM, first compound 0.1 µM
[33] = second compound 10 µM, first compound 0.316 µM
[34] = second compound 10 µM, first compound 1 µM
[35] = second compound 10 µM, first compound 3.16 µM
[36] = second compound 10 µM, first compound 10 µM
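Also: spheroids exposed to drugs for 7 days.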
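For viability, T/C in this document: 100% = DMSO vehicle treated spheroids.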

CC1COCCN1c1cc(C2(S(C)(=N)=O)CC2)nc(-c2ccnc3[nH]ccc23)n1 (stereo unspecified) + Nc1ccc(C#CCN(C(=O)Cc2ncc(C(F)(F)F)cc2C(F)(F)F)c2ccc(F)cc2)nn1
5700 nM: IC50 (second compound 0.1 µM)
> 10000 nM: IC50 (second compound 10 µM)
2000 nM: IC50 (second compound 0.316 µM)
2250 nM: IC50 (second compound 0.0316 µM)
5120 nM: IC50 (second compound 3.16 µM)
2540 nM: IC50 (second compound 1 µM)
inactive: viability, T/C [1] 91.6% | viability, T/C [2] 93% | viability, T/C [3] 76.2% | viability, T/C [4] 74.6% | viability, T/C [5] 37.4% | viability, T/C [6] 42.1% | viability, T/C [7] 127% | viability, T/C [8] 135% | viability, T/C [9] 95% | viability, T/C [10] 72.4% | viability, T/C [11] 68.5% | viability, T/C [12] 37.9% | viability, T/C [13] 104% | viability, T/C [14] 86.5% | viability, T/C [15] 109% | viability, T/C [16] 59.4% | viability, T/C [17] 47.9% | viability, T/C [18] 39.5% | viability, T/C [19] 124% | viability, T/C [20] 127% | viability, T/C [21] 90.3% | viability, T/C [22] 63% | viability, T/C [23] 51.3% | viability, T/C [24] 40% | viability, T/C [25] 113% | viability, T/C [26] 110% | viability, T/C [27] 113% | viability, T/C [28] 85% | viability, T/C [29] 70.3% | viability, T/C [30] 25.3% | viability, T/C [31] 127% | viability, T/C [32] 102% | viability, T/C [33] 108% | viability, T/C [34] 71.2% | viability, T/C [35] 67.6% | viability, T/C [36] 49.9%

CNCc1ccc(-c2[nH]c3cc(F)cc4c3c2CCNC4=O)cc1 + Nc1ccc(C#CCN(C(=O)Cc2ncc(C(F)(F)F)cc2C(F)(F)F)c2ccc(F)cc2)nn1
> 10000 nM: IC50 (second compound 0.0316 µM) | IC50 (second compound 0.1 µM) | IC50 (second compound 0.316 µM) | IC50 (second compound 1 µM) | IC50 (second compound 3.16 µM) | IC50 (second compound 10 µM)
inactive: viability, T/C [1] 97.4% | viability, T/C [2] 84.1% | viability, T/C [3] 84% | viability, T/C [4] 85.3% | viability, T/C [5] 94.5% | viability, T/C [6] 79% | viability, T/C [7] 77.9% | viability, T/C [8] 83.1% | viability, T/C [9] 99.7% | viability, T/C [10] 61.5% | viability, T/C [11] 95.8% | viability, T/C [12] 70.6% | viability, T/C [13] 81.7% | viability, T/C [14] 86.4% | viability, T/C [15] 90% | viability, T/C [16] 68.8% | viability, T/C [17] 77.2% | viability, T/C [18] 69.1% | viability, T/C [19] 73.4% | viability, T/C [20] 69.2% | viability, T/C [21] 107% | viability, T/C [22] 77.9% | viability, T/C [23] 103% | viability, T/C [24] 63.1% | viability, T/C [25] 105% | viability, T/C [26] 105% | viability, T/C [27] 85% | viability, T/C [28] 107% | viability, T/C [29] 74.2% | viability, T/C [30] 77.5% | viability, T/C [31] 72% | viability, T/C [32] 74.2% | viability, T/C [33] 88.7% | viability, T/C [34] 113% | viability, T/C [35] 96% | viability, T/C [36] 78.3%

Nc1ccn(C2OC(CO)C(O)C2(F)F)c(=O)n1 (stereo unspecified) + COC1C(OC(N)=O)C(O)C(Oc2ccc3c(O)c(NC(=O)c4ccc(O)c(CC=C(C)C)c4)c(=O)oc3c2C)OC1(C)C
35.4 nM: IC50 (second compound 3.16 µM)
< 31.6 nM: IC50 (second compound 0.0316 µM) | IC50 (second compound 0.1 µM) | IC50 (second compound 0.316 µM) | IC50 (second compound 1 µM) | IC50 (second compound 10 µM)
inactive: viability, T/C [1] 24.4% | viability, T/C [2] 9.96% | viability, T/C [7] 30.7% | viability, T/C [13] 26.8% | viability, T/C [19] 28.8% | viability, T/C [25] 54.6% | viability, T/C [31] 19.9%
active: viability, T/C [3] 7.61% | viability, T/C [4] 7.06% | viability, T/C [5] 5.98% | viability, T/C [6] 1.31% | viability, T/C [8] 9.93% | viability, T/C [9] 5.26% | viability, T/C [10] 7.92% | viability, T/C [11] 7.09% | viability, T/C [12] 2.72% | viability, T/C [14] 7.23% | viability, T/C [15] 6.54% | viability, T/C [16] 6.27% | viability, T/C [17] 6.01% | viability, T/C [18] 3.92% | viability, T/C [20] 4.66% | viability, T/C [21] 7.79% | viability, T/C [22] 8.09% | viability, T/C [23] 5.28% | viability, T/C [24] 2.12% | viability, T/C [26] 7.74% | viability, T/C [27] 6.32% | viability, T/C [28] 6% | viability, T/C [29] 4.45% | viability, T/C [30] 1.73% | viability, T/C [32] 7.37% | viability, T/C [33] 6.97% | viability, T/C [34] 6.33% | viability, T/C [35] 4.89% | viability, T/C [36] 2.82%
